Substitutions are numbered along the chain they refer to.
Experiments:
κB-Ras1–RGα2N complex = target: T1, κB-Ras1–RGα2N complex (Homo sapiens, UniProt Q9NYS0); assay: X-ray crystal structure, […] Å; conditions: Mg2+; 100 µM GNP added; nucleotide-binding pocket of κB-Ras1
T1 construct: gene NKIRAS1; GST-κB-Ras1 (2-175; 1-175 in Results) coexpressed in bacteria with 6xHis-SUMO-RGα2N (2-255, N-terminal domain); SUMO protease added, purified essentially as before, SEC
T1 sequence (Q9NYS0 2-175): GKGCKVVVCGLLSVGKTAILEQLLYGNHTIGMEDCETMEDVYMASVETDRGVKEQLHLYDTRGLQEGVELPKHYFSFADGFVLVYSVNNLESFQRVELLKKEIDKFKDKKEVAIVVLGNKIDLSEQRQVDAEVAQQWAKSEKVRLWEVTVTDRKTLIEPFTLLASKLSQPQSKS
T1 sequence (Q2PPJ7 2-255 partner): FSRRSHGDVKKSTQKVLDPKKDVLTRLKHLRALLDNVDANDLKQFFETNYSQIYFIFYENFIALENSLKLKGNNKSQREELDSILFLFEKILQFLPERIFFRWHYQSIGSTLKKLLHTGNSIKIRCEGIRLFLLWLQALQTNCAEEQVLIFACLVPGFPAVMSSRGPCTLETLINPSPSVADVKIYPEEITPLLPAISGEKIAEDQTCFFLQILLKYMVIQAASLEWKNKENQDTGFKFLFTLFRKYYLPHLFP

κB-Ras1 [1] = target: T2, κB-Ras1 (Homo sapiens, UniProt Q9NYS0, L65Q); assay: intrinsic GTP hydrolysis, HPLC of GTP/GDP; assay type: biochemical; conditions: 100 µM GTP, 24 h, 5 mM MgCl2, pH 7.5
T2 construct: gene NKIRAS1; residues 2-175, GST fusion from E. coli Rosetta, GST cut on column with PreScission protease, SEC
T2 sequence (Q9NYS0 2-175 L65Q): T1 sequence (Q9NYS0 2-175) with L64Q

κB-Ras1 [2] = target: T3, κB-Ras1 (Homo sapiens, UniProt Q9NYS0, G64A); assay: intrinsic GTP hydrolysis, HPLC of GTP/GDP; assay type: biochemical; conditions: 100 µM GTP, 24 h, 5 mM MgCl2, pH 7.5
T3 construct: gene NKIRAS1; residues 2-175, GST fusion from E. coli Rosetta, GST cut on column with PreScission protease, SEC
T3 sequence (Q9NYS0 2-175 G64A): T1 sequence (Q9NYS0 2-175) with G63A

κB-Ras1 [3] = target: T4, κB-Ras1 (Homo sapiens, UniProt Q9NYS0); assay: intrinsic GTP hydrolysis, HPLC of GTP/GDP; assay type: biochemical; conditions: 100 µM GTP, 24 h, 5 mM MgCl2, pH 7.5
T4 construct: gene NKIRAS1; residues 2-175, GST fusion from E. coli Rosetta, GST cut on column with PreScission protease, SEC
T4 sequence (Q9NYS0 2-175): T1 sequence (Q9NYS0 2-175)

Structure (SMILES)	X-ray crystal structure, 2.72 Å (κB-Ras1–RGα2N complex)	intrinsic GTP hydrolysis, HPLC of GTP/GDP (κB-Ras1 [1])	intrinsic GTP hydrolysis, HPLC of GTP/GDP (κB-Ras1 [2])	intrinsic GTP hydrolysis, HPLC of GTP/GDP (κB-Ras1 [3])
Nc1nc2c(ncn2[C@@H]2O[C@H](COP(=O)(O)OP(=O)(O)NP(=O)(O)O)[C@@H](O)[C@H]2O)c(=O)[nH]1 [GNP, 5′-guanylyl imidodiphosphate]	nucleotide-binding pocket of κB-Ras1 is occupied by a magnesium ion and the nonhydrolyzable GTP analog			
Nc1nc2c(ncn2[C@@H]2O[C@H](COP(=O)(O)OP(=O)(O)OP(=O)(O)O)[C@@H](O)[C@H]2O)c(=O)[nH]1 [GTP]		GTP hydrolysis was also not altered by this mutation	This substitution did not reduce intrinsic GTP hydrolysis activity of κB-Ras1 in vitro	intrinsic GTP hydrolysis by K-Ras, Rheb, κB-Ras1 WT, and variants measured in vitro

From PMC12314375, “The GTPase κB-Ras is an essential subunit of the RalGAP tumor suppressor complex” (The Journal of Biological Chemistry, 2025)
